How the values were obtained:
SN 12 C = assay: NCI 60-cell line one-dose antiproliferative screen (SRB); assay type: cell-based; conditions: Homo sapiens, SN12C, read-out: growth inhibition % (GI%)
Procedure: (§1) Anticancer activity screening of the newly synthesised compounds was measured in vitro utilising 60 different human tumour cell lines provided by US National Cancer Institute according to previously reported standard procedure[41–43] as follows: Cells are inoculated into 96-well microtiter plates in 100 ml. After cell inoculation, the microtiter plates are incubated at 37 °C, 5% CO2, 95% air, and 100% relative humidity for 24 h prior to addition of experimental compounds. After 24 h, two plates of each cell line are fixed in situ with TCA, to represent a measurement of the cell population for each cell line at the time of compound addition (Tz). Experimental compounds are solubilised in dimethyl sulfoxide at 400-fold the desired final maximum test concentration and stored frozen prior to use. At the time of compound addition, an aliquot of frozen concentrate is thawed and diluted to twice the desired final maximum test concentration with a complete medium containing […] gentamicin. Aliquots of […] of the compounds dilutions are added to the appropriate microtiter wells already containing 100 ml of medium, resulting in the required final compound concentration. Following compound addition, the plates are incubated for an additional 48 h at 37 °C, 5% CO2, 95% air, and 100% relative humidity. For adherent cells, the assay is terminated by the addition of cold trichloroacetic acid (TCA). Cells are fixed in situ by the gentle addition of 50 ml of cold 50% (w/v) TCA (final concentration, 10% TCA) and incubated for […] at 4 °C. The supernatant is discarded, and the plates are washed five times with tap water and air-dried. Sulforhodamine B (SRB) solution (100 ml) at 0.4% (w/v) in 1% acetic acid is added to each well, and plates are incubated for 10 min at room temperature. After staining, the unbound dye is removed by washing five times with 1% acetic acid and the plates are air-dried. The bound stain is subsequently solubilised with a 10 mM trizma base, and the absorbance is read on an automated plate reader at a wavelength of 515 nm. For suspension cells, the methodology is the same except that the assay is terminated by fixing settled cells at the bottom of the wells by gently adding 50 ml of 80% TCA (final concentration, 16% TCA). Using the absorbance measurements [time zero, (Tz), control growth, (C), and test growth in the presence of compound (Ti)], the percentage growth is calculated for each compound. The One-dose data are reported as a mean graph of the percent growth of treated cells. The reported number is growth relative to the no-compound control, and relative to the time zero number of cells. This allows the detection of both growth inhibition and lethality.
(§2) Fifteen newly synthesised compounds were tested for their in vitro antiproliferative activity by the National Cancer Institute (NCI), Maryland, USA[50], under the Developmental Therapeutic Program (DTP)[41]^,[43]^,[51]^,[52]. The tested compounds were evaluated at a concentration of 10 µM on a panel of 60 tumour cell lines representing leukaemia and non-small cell lung, colon, CNS, melanoma, ovarian, renal, prostate, and breast cancers. The antiproliferative activity was presented by the NCI as percent growth of the treated cells and is presented in Table 1 as growth inhibition percentage (GI%) achieved by the tested compounds.

T-47D = assay: as above; assay type: cell-based; conditions: Homo sapiens, T47D, read-out: growth inhibition % (GI%)
Procedure: as §1, §2

OVCAR-8 = assay: as above; assay type: cell-based; conditions: Homo sapiens, read-out: growth inhibition % (GI%)
Procedure: as §1, §2

U251 = assay: as above; assay type: cell-based; conditions: Homo sapiens, U-251, read-out: growth inhibition % (GI%)
Procedure: as §1, §2

SR = assay: as above; assay type: cell-based; conditions: Homo sapiens, read-out: growth inhibition % (GI%)
Procedure: as §1, §2

NCI-H522 = assay: as above; assay type: cell-based; conditions: Homo sapiens, read-out: growth inhibition % (GI%)
Procedure: as §1, §2

A549/ATCC = assay: as above; assay type: cell-based; conditions: Homo sapiens, read-out: growth inhibition % (GI%)
Procedure: as §1, §2

SF-539 = assay: as above; assay type: cell-based; conditions: Homo sapiens, read-out: growth inhibition % (GI%)
Procedure: as §1, §2

SW-620 = assay: as above; assay type: cell-based; conditions: Homo sapiens, read-out: growth inhibition % (GI%)
Procedure: as §1, §2

HCT-15 = assay: as above; assay type: cell-based; conditions: Homo sapiens, read-out: growth inhibition % (GI%)
Procedure: as §1, §2

IGROV1 = assay: as above; assay type: cell-based; conditions: Homo sapiens, IGROV-1, read-out: growth inhibition % (GI%)
Procedure: as §1, §2

MDA-MB-231/ATCC = assay: as above; assay type: cell-based; conditions: Homo sapiens, read-out: growth inhibition % (GI%)
Procedure: as §1, §2

HL-60 (TB) = assay: as above; assay type: cell-based; conditions: Homo sapiens, read-out: growth inhibition % (GI%)
Procedure: as §1, §2

KM12 = assay: as above; assay type: cell-based; conditions: Homo sapiens, read-out: growth inhibition % (GI%)
Procedure: as §1, §2

PC-3 = assay: as above; assay type: cell-based; conditions: Homo sapiens, read-out: growth inhibition % (GI%)
Procedure: as §1, §2

OVCAR-4 = assay: as above; assay type: cell-based; conditions: Homo sapiens, read-out: growth inhibition % (GI%)
Procedure: as §1, §2

UACC-62 = assay: as above; assay type: cell-based; conditions: Homo sapiens, read-out: growth inhibition % (GI%)
Procedure: as §1, §2

ACHN = assay: as above; assay type: cell-based; conditions: Homo sapiens, read-out: growth inhibition % (GI%)
Procedure: as §1, §2

SNB-75 = assay: as above; assay type: cell-based; conditions: Homo sapiens, read-out: growth inhibition % (GI%)
Procedure: as §1, §2

CAKI-1 = assay: as above; assay type: cell-based; conditions: Homo sapiens, read-out: growth inhibition % (GI%)
Procedure: as §1, §2

LOX IMVI = assay: as above; assay type: cell-based; conditions: Homo sapiens, read-out: growth inhibition % (GI%)
Procedure: as §1, §2

A498 = assay: as above; assay type: cell-based; conditions: Homo sapiens, read-out: growth inhibition % (GI%)
Procedure: as §1, §2

K-562 = assay: as above; assay type: cell-based; conditions: Homo sapiens, K562, read-out: growth inhibition % (GI%)
Procedure: as §1, §2

NCI/ADR-RES = assay: as above; assay type: cell-based; conditions: Homo sapiens, read-out: growth inhibition % (GI%)
Procedure: as §1, §2

HOP-62 = assay: as above; assay type: cell-based; conditions: Homo sapiens, read-out: growth inhibition % (GI%)
Procedure: as §1, §2

UACC-257 = assay: as above; assay type: cell-based; conditions: Homo sapiens, read-out: growth inhibition % (GI%)
Procedure: as §1, §2

HCT-116 = assay: as above; assay type: cell-based; conditions: Homo sapiens, read-out: growth inhibition % (GI%)
Procedure: as §1, §2

SK-OV-3 = assay: as above; assay type: cell-based; conditions: Homo sapiens, read-out: growth inhibition % (GI%)
Procedure: as §1, §2

786-0 = assay: as above; assay type: cell-based; conditions: Homo sapiens, read-out: growth inhibition % (GI%)
Procedure: as §1, §2

HS 578 T = assay: as above; assay type: cell-based; conditions: Homo sapiens, read-out: growth inhibition % (GI%)
Procedure: as §1, §2

EKVX = assay: as above; assay type: cell-based; conditions: Homo sapiens, read-out: growth inhibition % (GI%)
Procedure: as §1, §2

SF-295 = assay: as above; assay type: cell-based; conditions: Homo sapiens, read-out: growth inhibition % (GI%)
Procedure: as §1, §2

NCI-H460 = assay: as above; assay type: cell-based; conditions: Homo sapiens, read-out: growth inhibition % (GI%)
Procedure: as §1, §2

NCI-H226 = assay: as above; assay type: cell-based; conditions: Homo sapiens, read-out: growth inhibition % (GI%)
Procedure: as §1, §2

HOP-92 = assay: as above; assay type: cell-based; conditions: Homo sapiens, read-out: growth inhibition % (GI%)
Procedure: as §1, §2

NCI-H23 = assay: as above; assay type: cell-based; conditions: Homo sapiens, read-out: growth inhibition % (GI%)
Procedure: as §1, §2

MCF7 = assay: as above; assay type: cell-based; conditions: Homo sapiens, read-out: growth inhibition % (GI%)
Procedure: as §1, §2

OVCAR-5 = assay: as above; assay type: cell-based; conditions: Homo sapiens, read-out: growth inhibition % (GI%)
Procedure: as §1, §2

UO-31 = assay: as above; assay type: cell-based; conditions: Homo sapiens, read-out: growth inhibition % (GI%)
Procedure: as §1, §2

MOLT-4 = assay: as above; assay type: cell-based; conditions: Homo sapiens, read-out: growth inhibition % (GI%)
Procedure: as §1, §2

MALME-3M = assay: as above; assay type: cell-based; conditions: Homo sapiens, read-out: growth inhibition % (GI%)
Procedure: as §1, §2

SK-MEL-5 = assay: as above; assay type: cell-based; conditions: Homo sapiens, read-out: growth inhibition % (GI%)
Procedure: as §1, §2

RPMI-8226 = assay: as above; assay type: cell-based; conditions: Homo sapiens, read-out: growth inhibition % (GI%)
Procedure: as §1, §2

SNB-19 = assay: as above; assay type: cell-based; conditions: Homo sapiens, read-out: growth inhibition % (GI%)
Procedure: as §1, §2

SF-268 = assay: as above; assay type: cell-based; conditions: Homo sapiens, read-out: growth inhibition % (GI%)
Procedure: as §1, §2

Compound: Cc1ccc(C(=O)c2ccc(CC(=O)NN=Cc3cc4ccccc4[nH]3)n2C)cc1 [Compound 5e, N′-((1H-Indol-2-yl)methylene)-2–(1-methyl-5–(4-methylbenzoyl)-1H-pyrrol-2-yl) acetohydrazide]
- melting point: 198 to 200 °C
- inhibition at 10 µM (SN 12 C): 10.5%
- inhibition at 10 µM (T-47D): 29.4%
- inhibition at 10 µM (OVCAR-8): < 10%
- inhibition at 10 µM (U251): < 10%
- inhibition at 10 µM (SR): < 10%
- inhibition at 10 µM (NCI-H522): 18.9%
- inhibition at 10 µM (A549/ATCC): < 10%
- inhibition at 10 µM (SF-539): < 10%
- inhibition at 10 µM (SW-620): < 10%
- inhibition at 10 µM (HCT-15): 12.6%
- inhibition at 10 µM (IGROV1): 45.5%
- inhibition at 10 µM (MDA-MB-231/ATCC): 20.5%
- inhibition at 10 µM (HL-60 (TB)): < 10%
- inhibition at 10 µM (KM12): < 10%
- inhibition at 10 µM (PC-3): 10.9%
- inhibition at 10 µM (OVCAR-4): 19.3%
- inhibition at 10 µM (UACC-62): 15.8%
- inhibition at 10 µM (ACHN): < 10%
- inhibition at 10 µM (SNB-75): 15.3%
- inhibition at 10 µM (CAKI-1): 15.8%
- inhibition at 10 µM (LOX IMVI): 10.7%
- inhibition at 10 µM (A498): 10.9%
- inhibition at 10 µM (K-562): < 10%
- inhibition at 10 µM (NCI/ADR-RES): < 10%
- inhibition at 10 µM (HOP-62): 24%
- inhibition at 10 µM (UACC-257): < 10%
- inhibition at 10 µM (HCT-116): < 10%
- inhibition at 10 µM (SK-OV-3): 12.1%
- inhibition at 10 µM (786-0): < 10%
- inhibition at 10 µM (HS 578 T): < 10%
- inhibition at 10 µM (EKVX): 25.7%
- inhibition at 10 µM (SF-295): < 10%
- inhibition at 10 µM (NCI-H460): < 10%
- inhibition at 10 µM (NCI-H226): 15.3%
- inhibition at 10 µM (HOP-92): 10.3%
- inhibition at 10 µM (NCI-H23): 15.4%
- inhibition at 10 µM (MCF7): 22.1%
- inhibition at 10 µM (OVCAR-5): < 10%
- inhibition at 10 µM (UO-31): 40.4%
- inhibition at 10 µM (MOLT-4): < 10%
- inhibition at 10 µM (MALME-3M): < 10%
- inhibition at 10 µM (SK-MEL-5): < 10%
- inhibition at 10 µM (RPMI-8226): < 10%
- inhibition at 10 µM (SNB-19): 17.3%
- inhibition at 10 µM (SF-268): < 10%
